From US9504669B2, “Spliceostatin analogs and methods for their preparation” (PFIZER INC., priority 2012, dated 2016)
Structures can show the parent of a compound that is named as a salt.

Assays:
Format in all cases: cell-based
[1] = test system: N87 (gastric cancer) cells; assay: In vitro cell assay (MTS cell viability), N87; details: 96 h, free compounds (natural products and synthetic analogs); cell viability 96 hours after treatment
Procedure, shortened: (§1)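 Cells seeded 24 h, then treated with antibody-drug conjugates or free drug, 3-fold serial dilutions at 10 concentrations in duplicate. Viability by MTS at 96 h as percent of untreated control; IC50 from four-parameter logistic fit.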

[2] = test system: MDA-MB-361-DYT2 (breast cancer) cells; assay: In vitro cell assay (MTS cell viability), MDA-MB-361-DYT2; details: 96 h, free compounds (natural products and synthetic analogs); cell viability 96 hours after treatment
Procedure, shortened: as §1

[3] = test system: MDA-MB-468 cells (target non-expressing); assay: In vitro cell assay (MTS cell viability), MDA-MB-468; details: Homo sapiens, MDA-MB-468, 96 h, read-out: MDA-MB-468 IC50 (nM)
Protocol: Target expressing (BT474 (breast cancer), N87 (gastric cancer), HCC1954 (breast cancer), MDA-MB-361-DYT2 (breast cancer)) or non-expressing (MDA-MB-468) cells were seeded in 96-well cell culture plates for 24 hours before treatment. Cells were treated with 3-fold serially diluted antibody-drug conjugates or free compounds (i.e., no antibody conjugated to the drug) in duplicate at 10 concentrations. Cell viability was determined by CellTiter 96® AQueous One Solution Cell Proliferation MTS Assay (Promega, Madison Wis.) 96 hours after treatment. Relative cell viability was determined as percentage of untreated control. IC50 values were calculated using a four parameter logistic model #203 with XLfit v4.2 (IDBS, Guildford, Surry, UK). The potency ranged upward from 0.0002 nm. Similar procedures and techniques were employed.

[4] = test system: BT474 (breast cancer) cells; assay: In vitro cell assay (MTS cell viability), BT474; details: Homo sapiens, BT-474; free compounds (natural products and synthetic analogs); cell viability 96 hours after treatment
Procedure, shortened: as §1

| SMILES | IC50 [1] [nM] | IC50 [2] [nM] | IC50 [3] [nM] | IC50 [4] [nM] |
| --- | --- | --- | --- | --- |
| CC(/C=C/[C@H]1O[C@H](CC(=O)O)C[C@@]2(CO2)[C@@H]1O)=C\C[C@@H]1O[C@H](C)[C@H](NC(=O)/C=C\[C@H](C)O)C[C@@H]1C [#B4, [(3R,5S,7R,8R)-8-hydroxy-7-{(1E,3E)-5-[(2S,3S,5R,6R)-5-{[(2Z,4S)-4-hydroxypent-2-enoyl]amino}-3,6-dimethyltetrahydro-2H-pyran-2-yl]-3-methylpenta-1,3-dien-1-yl}-1,6-dioxaspiro[2.5]oct-5-yl]acetic acid] | > 100 | > 100 | > 100 | > 100 |
| CC(=O)O[C@@H](C)/C=C\C(=O)N[C@@H]1C[C@H](C)[C@H](C/C=C(C)/C=C/[C@H]2O[C@H](CC(=O)NN)C[C@@]3(CO3)[C@@H]2O)O[C@@H]1C [#B6, (2S,3Z)-5-{[(2R,3R,5S,6S)-6-{(2E,4E)-5-[(3R,4R,5R,7S)-7-(2-hydrazinyl-2-oxoethyl)-4-hydroxy-1,6-dioxaspiro[2.5]oct-5-yl]-3-methylpenta-2,4-dien-1-yl}-2,5-dimethyltetrahydro-2H-pyran-3-yl]amino}-5-oxopent-3-en-2-yl acetate] | 5.66 | 25.4 | 7.97 | 16.5 |
| CCCNC(=O)C[C@@H]1C[C@@]2(CO2)C[C@@H](/C=C/C(C)=C/C[C@@H]2O[C@H](C)[C@H](NC(=O)/C=C\[C@H](C)OC(C)=O)C[C@@H]2C)O1 [#B64, (2S,3Z)-5-({(2R,3R,5S,6S)-2,5-dimethyl-6-[(2E,4E)-3-methyl-5-{(3S,5S,7S)-7-[2-oxo-2-(propylamino)ethyl]-1,6-dioxaspiro[2.5]oct-5-yl}penta-2,4-dien-1-yl]tetrahydro-2H-pyran-3-yl}amino)-5-oxopent-3-en-2-yl acetate] | 24.8 |  | 1.38 | 5.26 |
| CCCNC(=O)C[C@@H]1C[C@@]2(CO2)[C@H](O)[C@@H](/C=C/C(C)=C/C[C@@H]2O[C@H](C)[C@H](NC(=O)/C=C\[C@H](C)OC(=O)N3CCCCC3)C[C@@H]2C)O1 [#B66, (2S,3Z)-5-({(2R,3R,5S,6S)-6-[(2E,4E)-5-{(3R,4R,5R,7S)-4-hydroxy-7-[2-oxo-2-(propylamino)ethyl]-1,6-dioxaspiro[2.5]oct-5-yl}-3-methylpenta-2,4-dien-1-yl]-2,5-dimethyltetrahydro-2H-pyran-3-yl}amino)-5-oxopent-3-en-2-yl piperidine-1-carboxylate] | 1.58 |  | 0.27 | 0.18 |
| CC(/C=C/[C@@H]1C[C@]2(CO2)C[C@@H](CC(N)=O)O1)=C\C[C@@H]1O[C@H](C)[C@H](NC(=O)/C=C\[C@H](C)OC(=O)N2CCNCC2)C[C@@H]1C [#B136, (2S,3Z)-5-{[(2R,3R,5S,6S)-6-{(2E,4E)-5-[(3S,5S,7S)-7-(2-amino-2-oxoethyl)-1,6-dioxaspiro[2.5]oct-5-yl]-3-methylpenta-2,4-dien-1-yl}-2,5-dimethyltetrahydro-2H-pyran-3-yl]amino}-5-oxopent-3-en-2-yl piperazine-1-carboxylate, acetate salt] | 90.1 | > 100 |  | 25.5 |
| CC(/C=C/[C@@H]1C[C@]2(CO2)C[C@@H](CC(N)=O)O1)=C\C[C@@H]1O[C@H](C)[C@H](NC(=O)/C=C\[C@H](C)OC(=O)N2CCN(C)CC2)C[C@@H]1C [#B137, (2S,3Z)-5-{[(2R,3R,5S,6S)-6-{(2E,4E)-5-[(3S,5S,7S)-7-(2-amino-2-oxoethyl)-1,6-dioxaspiro[2.5]oct-5-yl]-3-methylpenta-2,4-dien-1-yl}-2,5-dimethyltetrahydro-2H-pyran-3-yl]amino}-5-oxopent-3-en-2-yl-4-methylpiperazine-1-carboxylate] | 5.59 | 10.3 |  | 1.8 |
| CC(/C=C/[C@@H]1C[C@]2(CO2)C[C@@H](CN)O1)=C\C[C@@H]1O[C@H](C)[C@H](NC(=O)/C=C\[C@H](C)O)C[C@@H]1C [#B139, (2Z,4S)—N-[(2R,3R,5S,6S)-6-{(2E,4E)-5-[(3R,5S,7S)-7-(aminomethyl)-1,6-dioxaspiro[2.5]oct-5-yl]-3-methylpenta-2,4-dien-1-yl}-2,5-dimethyltetrahydro-2H-pyran-3-yl]-4-hydroxypent-2-enamide, acetate salt] | 6.51 | 13.4 |  | 5.49 |
| CC(=O)O[C@@H](C)/C=C\C(=O)N[C@@H]1C[C@H](C)[C@H](C/C=C(C)/C=C/[C@@H]2C[C@]3(CO3)C[C@@H](CN)O2)O[C@@H]1C [#B140, (2S,3Z)-5-{[(2R,3R,5S,6S)-6-{(2E,4E)-5-[(3R,5S,7S)-7-(aminomethyl)-1,6-dioxaspiro[2.5]oct-5-yl]-3-methylpenta-2,4-dien-1-yl}-2,5-dimethyltetrahydro-2H-pyran-3-yl]amino}-5-oxopent-3-en-2-yl acetate, acetate salt] | 1.01 | 0.632 |  | 0.517 |
| CC(=O)O[C@@H](C)/C=C\C(=O)N[C@@H]1C[C@H](C)[C@H](C/C=C(C)/C=C/[C@H]2O[C@H](CC(=O)N[C@H]3CC[C@H](O)CC3)C[C@@]3(CO3)[C@@H]2O)O[C@@H]1C [#B141, (2S,3Z)-5-{[(2R,3R,5S,6S)-6-{(2E,4E)-5-[(3R,4R,5R,7S)-4-hydroxy-7-{2-[(trans-4-hydroxycyclohexyl)amino]-2-oxoethyl}-1,6-dioxaspiro[2.5]oct-5-yl]-3-methylpenta-2,4-dien-1-yl}-2,5-dimethyltetrahydro-2H-pyran-3-yl]amino}-5-oxopent-3-en-2-yl acetate] | 11 | 12.8 |  | 10.9 |
| CC(=O)O[C@@H](C)/C=C\C(=O)N[C@@H]1C[C@H](C)[C@H](C/C=C(C)/C=C/[C@H]2O[C@H](CN)C[C@@]3(CO3)[C@@H]2O)O[C@@H]1C [#B147, (2S,3Z)-5-{[(2R,3R,5S,6S)-6-{(2E,4E)-5-[(3R,4R,5R,7S)-7-(aminomethyl)-4-hydroxy-1,6-dioxaspiro[2.5]oct-5-yl]-3-methylpenta-2,4-dien-1-yl}-2,5-dimethyltetrahydro-2H-pyran-3-yl]amino}-5-oxopent-3-en-2-yl acetate, acetate salt] | 9.92 | 17.2 |  | 6.81 |
| CC(=O)O[C@@H](C)/C=C\C(=O)N[C@@H]1C[C@H](C)[C@H](C/C=C(C)/C=C/[C@H]2O[C@H](CC(=O)O)C[C@@](O)(CCl)[C@@H]2O)O[C@@H]1C [#NP5, (5R)-5-{(1E,3E)-5-[(2S,3S,5R,6R)-5-{[(2Z,4S)-4-(acetyloxy)pent-2-enoyl]amino}-3,6-dimethyltetrahydro-2H-pyran-2-yl]-3-methylpenta-1,3-dien-1-yl}-1,5-anhydro-1-(carboxymethyl)-3-C-(chloromethyl)-2-deoxypentitol] | > 100 |  | > 100 | > 100 |
| CC(=O)O[C@@H](C)/C=C\C(=O)N[C@@H]1C[C@H](C)[C@H](C/C=C(C)/C=C/[C@H]2OC(C)(O)C(O)C(O)(CO)C2O)O[C@@H]1C (stereo partly drawn) [#NP6, (6R)-6-{(1E,3E)-5-[(2S,3S,5R,6R)-5-{[(2Z,4S)-4-(acetyloxy)pent-2-enoyl]amino}-3,6-dimethyltetrahydro-2H-pyran-2-yl]-3-methylpenta-1,3-dien-1-yl}-1-deoxy-4-C-(hydroxymethyl)hex-2-ulopyranose] | > 100 |  | > 100 | > 100 |
| CC(=O)OCC1(O)CC(/C=C/C(C)=C/C[C@@H]2O[C@H](C)[C@H](NC(=O)/C=C\[C@H](C)OC(C)=O)C[C@@H]2C)OC(CC(=O)O)C1 (stereo partly drawn) [#NP7, (4-[(acetyloxy)methyl]-6-{(1E,3E)-5-[(2S,3S,5R,6R)-5-{[(2Z,4S)-4-(acetyloxy)pent-2-enoyl]amino}-3,6-dimethyltetrahydro-2H-pyran-2-yl]-3-methylpenta-1,3-dien-1-yl}-4-hydroxytetrahydro-2H-pyran-2-yl)acetic acid] | > 100 |  | > 100 | > 100 |
| CC(=O)O[C@@H](C)/C=C\C(=O)N[C@@H]1C[C@H](C)[C@H](C/C=C(C)/C=C/C2CC(O)(CCl)CC(CC(=O)O)O2)O[C@@H]1C (stereo partly drawn) [#NP8, [6-{(1E,3E)-5-[(2S,3S,5R,6R)-5-{[(2Z,4S)-4-(acetyloxy)pent-2-enoyl]amino}-3,6-dimethyltetrahydro-2H-pyran-2-yl]-3-methylpenta-1,3-dien-1-yl}-4-(chloromethyl)-4-hydroxytetrahydro-2H-pyran-2-yl]acetic acid] | 0.643 |  | 1.35 | 1.94 |
| CC(=O)OCC1(O)C(O)C(/C=C/C(C)=C/C[C@@H]2O[C@H](C)[C@H](NC(=O)/C=C\[C@H](C)OC(C)=O)C[C@@H]2C)OC(C)(O)C1O (stereo partly drawn) [#NP9, 4-C-[(acetyloxy)methyl]-6-{(1E,3E)-5-[(2S,3S,5R,6R)-5-{[(2Z,4S)-4-(acetyloxy)pent-2-enoyl]amino}-3,6-dimethyltetrahydro-2H-pyran-2-yl]-3-methylpenta-1,3-dien-1-yl}-1-deoxyhex-2-ulopyranose] | 74.3 |  | 59.2 | 65.8 |
| CC(=O)O[C@@H](C)/C=C\C(=O)N[C@@H]1C[C@H](C)[C@H](C/C=C(C)/C=C/[C@@H]2C[C@]3(CO3)C[C@@](C)(O)O2)O[C@@H]1C [#NP12, (2S,3Z)-5-{[(2R,3R,5S,6S)-6-{(2E,4E)-5-[(3R,5S,7S)-7-hydroxy-7-methyl-1,6-dioxaspiro[2.5]oct-5-yl]-3-methylpenta-2,4-dien-1-yl}-2,5-dimethyltetrahydro-2H-pyran-3-yl]amino}-5-oxopent-3-en-2-yl acetate] | 13.8 | 4.91 |  | 5.02 |
